From a melting point compilation (Tetko et al.)

SMILES | melting point [°C]
COc1cc(C=O)ccc1S | 43 to 45
O=S(=O)(c1ccc(F)cc1)N1CCNCC1 | 112 to 114
Nc1c(Cl)cc(Cl)c2c1N=S=N2 | 176 to 178
Cn1cc(C#N)cc1C(=O)O | 239 to 241
NC(=O)c1ccc(Oc2ccc(C(=O)O)cc2)cc1 | 289 to 291
COc1cc2c(cc1OC)S(=O)(=O)NC2=O | 279 to 281
COc1cc(OC)cc(C(=O)Nc2ccc(C(=O)O)c(O)c2)c1 | 219 to 221
O=C(Nc1cccc(O)c1)c1ccco1 | 164 to 166
O=[N+]([O-])c1ccc2oc(S)nc2c1 | 241 to 243
CC(=O)c1cnn(Cc2ccccc2)c1 | 61 to 63
CC1CNC(=O)N1c1cccc(N)c1 (stereo unspecified) | 169 to 171
NC(=S)Cc1cn2cc(Cl)cc(Cl)c2n1 | 189 to 191
Brc1ccc(SC2CCOCC2)nc1 | 60 to 62
O=[N+]([O-])c1cn[nH]c1C1CC1 | 95 to 97
Cn1c(=O)[nH]c2ccccc2c1=O | 242 to 244
COc1coc(CO)cc1=O | 163 to 165
CC(C)C(=O)Nc1ccc(N)cc1 | 74 to 76
COC(=O)c1ccc(F)cc1S(=O)(=O)Cl | 63 to 65
O=[N+]([O-])c1ccccc1CS(=O)(=O)Cl | 64 to 66
Nc1ccc(N)c(S(=O)(=O)Nc2ccccc2Cl)c1 | 213 to 215
CCc1nn(C)c(CC)c1S(N)(=O)=O | 177 to 179
CC(=CC(=O)O)c1ccccc1C(F)(F)F | 133 to 135
C=CC(=O)Nc1ccc(OCC)c(CO)c1 | 129 to 131
O=C(O)c1cc(-c2ccccc2)c(N2CCOCC2)s1 | 172 to 174

SMILES | melting point [°C]
NC(=O)c1ccc(OCC(=O)O)cc1 | 264 to 266
O=S(=O)(c1ccc(F)cc1)C(F)F | 51 to 53
O=C1CCc2c(OCc3ccccc3)cccc21 | 71 to 73
CCOC(=O)COc1ccccc1C(C)=O | 44 to 46
O=C(O)c1cc(F)c(F)cc1Br | 118 to 122
O=c1[nH]c(-c2cnccn2)no1 | 232 to 234
CN(C)S(=O)(=O)c1cncc(C=CC(=O)O)c1 | 242 to 244
Nc1nc(N)nc(CO)n1 | 269 to 271
Cc1noc(C)c1CSc1ccccc1C(=O)O | 192 to 194
Cn1c(CO)nnc1C1CCC1 | 133 to 135
COc1ccc(N2C(=O)CC(=O)NC2=S)cc1 | 241 to 243
Cc1cc(C)c2nc(C3CC3)cc(C(=O)O)c2c1 | 207 to 209
O=C(O)C(Cc1ccccc1)NC(=O)C(c1ccccc1)c1ccccc1 (stereo unspecified) | 149 to 151
CC1CCc2c(sc3nc(CCC(=O)O)[nH]c(=O)c23)C1 (stereo unspecified) | 259 to 261
O=C(c1ccc(F)cc1)N1CCCCC(Cl)C1=O (stereo unspecified) | 143 to 145
Cc1ccc(C(=O)O)cc1S(N)(=O)=O | 275 to 277
O=C(O)c1cc(-c2ccccn2)nc2ccccc12 | 297 to 299
O=C(O)C1CCN(C(=O)N2CCCC2)CC1 | 144 to 146
O=C(O)c1ccc([N+](=O)[O-])c2cccnc12 | 204 to 206
CC(C)(C)N1C(=O)CNC1=O | 84 to 86
Cc1ccc(C(=O)O)c(C)n1 | 168 to 170
CC(=O)Nc1cccc(I)c1 | 123 to 125
CCOc1ccc(S(=O)(=O)N2CCOCC2)cc1N | 165 to 167
CCOc1ccc(C=C(C#N)C(=O)O)cc1 | 228 to 230

SMILES | melting point [°C]
O=C(O)c1cc(Cl)nc(Oc2ccc(Br)cc2)c1 | 213 to 215
CN(C)c1nc2sc(C(=O)O)cc2s1 | 205 to 207
N#CCC(=O)c1ccc2c(c1)OCO2 | 134 to 136
Cc1cc[nH]c(=O)c1C(N)=O | 235 to 237
CC(C)c1ccc(N2Cc3ccc(N)cc3C2)cc1 | 164 to 166
NC(=O)C1Cc2cc(S(N)(=O)=O)ccc2O1 (stereo unspecified) | 223 to 225
O=C(O)c1cc(Br)ncc1[N+](=O)[O-] | 169 to 171
Sc1nccn1Cc1ccccn1 | 173 to 175
Cc1nc(Cl)c2c(-c3ccccc3)csc2n1 | 169 to 173
CC(Cl)c1nnc(-c2ccccc2)o1 (stereo unspecified) | < 17
Cc1ccc(-n2nc(C(=O)O)ccc2=O)cc1Cl | 240 to 242
CCCCCCCCCCCC(=O)c1ccc(O)cc1 | 71 to 73
Cc1ccc(Nc2nnc(S)s2)cc1 | 219 to 221
CC1=NN(c2cccc(C(F)(F)F)c2)C(=O)C1 | 127 to 129
CCc1c(Cl)nc(-c2ccccc2)nc1Cl | 73 to 75
CC(C)(C)OC(=O)N1CCN(c2ccc(Cl)nn2)CC1 | 162 to 164
O=C(O)C(Sc1ccc(F)cc1)c1ccccc1 (stereo unspecified) | 84 to 86
C#CCOc1ccc(C(=O)O)cc1 | 216 to 218
CNC(=O)C1CN(Cc2ccccc2)CCO1 (stereo unspecified) | 113 to 115
O=c1[nH]c2cc(Br)ccc2o1 | 209 to 211
CNCC(=O)N(C)c1ccccn1 | 108 to 110
CNC(=S)NCc1ccco1 | 74 to 76
CCN(CC)Cc1nc(Cl)c2c(C)c(C)sc2n1 | 30 to 32
